How the values were obtained:
[1] = xn = mol fraction of the nth substance listed; conditions: 101 kPa, Liquid; for speed of sound: Single path-length method; for mass density: Vibrating tube method
[2] = refractive index (Na D-line) (dimensionless); xn = mol fraction of the nth substance listed; conditions: 101 kPa, Liquid, Standard Abbe refractometry

CCCC(C)=O [pentan-2-one] + CC(C)O
Conditions | mass density, [1] [kg/m3] | refractive index, [2] | speed of sound, [1] [m/s]
298.15 K, x1 = 0.0978 | 782.98 | 1.3767 | 1146.5
298.15 K, x1 = 0.2344 | 785.78 | 1.3786 | 1157.5
298.15 K, x1 = 0.3338 | 787.81 | 1.37996 | 1165.5
298.15 K, x1 = 0.4126 | 789.5 | 1.38098 | 1171.7
298.15 K, x1 = 0.4972 | 791.25 | 1.38207 | 1178.4
298.15 K, x1 = 0.6036 | 793.49 | 1.3834 | 1186.6
298.15 K, x1 = 0.7125 | 795.82 | 1.38472 | 1195
298.15 K, x1 = 0.8043 | 797.8 | 1.3858 | 1202
298.15 K, x1 = 0.9009 | 799.87 | 1.3869 | 1209.1
298.15 K, x1 = 1 | 802.09 | 1.38782 | 1216
308.15 K, x1 = 0.0978 | 774.13 | 1.3723 | 1110.6
308.15 K, x1 = 0.2344 | 776.72 | 1.37412 | 1120.8
308.15 K, x1 = 0.3338 | 778.65 | 1.3754 | 1128.1
308.15 K, x1 = 0.4126 | 780.23 | 1.37637 | 1133.8
308.15 K, x1 = 0.4972 | 781.85 | 1.37741 | 1139.9
308.15 K, x1 = 0.6036 | 783.93 | 1.37867 | 1147.5
308.15 K, x1 = 0.7125 | 786.12 | 1.37993 | 1155.2
308.15 K, x1 = 0.8043 | 788.05 | 1.38098 | 1161.6
308.15 K, x1 = 0.9009 | 790.07 | 1.382 | 1168.2
308.15 K, x1 = 1 | 792.32 | 1.38284 | 1174.4
318.15 K, x1 = 0.0978 | 764.87 | 1.3677 | 1074.9
318.15 K, x1 = 0.2344 | 767.32 | 1.36948 | 1084.2
318.15 K, x1 = 0.3338 | 769.16 | 1.37072 | 1090.9
318.15 K, x1 = 0.4126 | 770.69 | 1.37167 | 1096.1
318.15 K, x1 = 0.4972 | 772.19 | 1.37268 | 1101.7
318.15 K, x1 = 0.6036 | 774.18 | 1.3739 | 1108.7
318.15 K, x1 = 0.7125 | 776.29 | 1.37511 | 1115.7
318.15 K, x1 = 0.8043 | 778.16 | 1.3761 | 1121.5
318.15 K, x1 = 0.9009 | 780.17 | 1.37708 | 1127.6
318.15 K, x1 = 1 | 782.44 | 1.37782 | 1133.3
328.15 K, x1 = 0.0978 | 755.34 | 1.36295 | 1039
328.15 K, x1 = 0.2344 | 757.63 | 1.36471 | 1047.7
328.15 K, x1 = 0.3338 | 759.42 | 1.36591 | 1054
328.15 K, x1 = 0.4126 | 760.87 | 1.36686 | 1058.8
328.15 K, x1 = 0.4972 | 762.28 | 1.36785 | 1064.1
328.15 K, x1 = 0.6036 | 764.21 | 1.36905 | 1070.6
328.15 K, x1 = 0.7125 | 766.2 | 1.37023 | 1077.2
328.15 K, x1 = 0.8043 | 768.09 | 1.3712 | 1082.6
328.15 K, x1 = 0.9009 | 770.12 | 1.37215 | 1088.3
328.15 K, x1 = 1 | 772.43 | 1.3728 | 1093.6
338.15 K, x1 = 0.0978 | 744.73 | 1.3579 | 1003.3
338.15 K, x1 = 0.2344 | 746.99 | 1.35966 | 1011.5
338.15 K, x1 = 0.3338 | 748.79 | 1.36085 | 1017.3
338.15 K, x1 = 0.4126 | 750.28 | 1.36181 | 1021.8
338.15 K, x1 = 0.4972 | 751.71 | 1.3628 | 1026.7
338.15 K, x1 = 0.6036 | 753.67 | 1.36398 | 1032.7
338.15 K, x1 = 0.7125 | 755.74 | 1.36515 | 1038.8
338.15 K, x1 = 0.8043 | 757.71 | 1.36612 | 1043.8
338.15 K, x1 = 0.9009 | 759.83 | 1.36705 | 1049
338.15 K, x1 = 1 | 762.27 | 1.36764 | 1053.8

CCCC(C)=O [pentan-2-one] + CCC(C)O
Conditions | mass density, [1] [kg/m3] | refractive index, [2] | speed of sound, [1] [m/s]
298.15 K, x1 = 0.1227 | 801.36 | 1.39423 | 1212.6
298.15 K, x1 = 0.2361 | 800.45 | 1.39353 | 1213.1
298.15 K, x1 = 0.3467 | 800.01 | 1.3928 | 1213.5
298.15 K, x1 = 0.4522 | 799.88 | 1.39205 | 1214
298.15 K, x1 = 0.5521 | 799.79 | 1.39133 | 1214.3
298.15 K, x1 = 0.6518 | 799.88 | 1.39059 | 1214.7
298.15 K, x1 = 0.744 | 800.22 | 1.38988 | 1215.1
298.15 K, x1 = 0.8299 | 800.65 | 1.38922 | 1215.4
298.15 K, x1 = 0.919 | 801.23 | 1.38853 | 1215.7
298.15 K, x1 = 1 | 802.09 | 1.38782 | 1216
308.15 K, x1 = 0.1227 | 792.32 | 1.38958 | 1175.7
308.15 K, x1 = 0.2361 | 791.24 | 1.38887 | 1175.5
308.15 K, x1 = 0.3467 | 790.78 | 1.38809 | 1175.4
308.15 K, x1 = 0.4522 | 790.51 | 1.38731 | 1175.3
308.15 K, x1 = 0.5521 | 790.25 | 1.38655 | 1175.2
308.15 K, x1 = 0.6518 | 790.23 | 1.38577 | 1175
308.15 K, x1 = 0.744 | 790.31 | 1.38503 | 1174.9
308.15 K, x1 = 0.8299 | 790.62 | 1.38434 | 1174.7
308.15 K, x1 = 0.919 | 791.25 | 1.38358 | 1174.6
308.15 K, x1 = 1 | 792.32 | 1.38284 | 1174.4
318.15 K, x1 = 0.1227 | 783.39 | 1.38489 | 1138.5
318.15 K, x1 = 0.2361 | 782.07 | 1.38415 | 1137.9
318.15 K, x1 = 0.3467 | 781.42 | 1.38335 | 1137.2
318.15 K, x1 = 0.4522 | 780.93 | 1.38254 | 1136.6
318.15 K, x1 = 0.5521 | 780.55 | 1.38177 | 1136.1
318.15 K, x1 = 0.6518 | 780.41 | 1.38095 | 1135.5
318.15 K, x1 = 0.744 | 780.42 | 1.38018 | 1134.9
318.15 K, x1 = 0.8299 | 780.73 | 1.37943 | 1134.4
318.15 K, x1 = 0.919 | 781.32 | 1.3786 | 1133.8
318.15 K, x1 = 1 | 782.44 | 1.37782 | 1133.3
328.15 K, x1 = 0.1227 | 773.65 | 1.37968 | 1101
328.15 K, x1 = 0.2361 | 772.15 | 1.37897 | 1100.1
328.15 K, x1 = 0.3467 | 771.4 | 1.37819 | 1099.2
328.15 K, x1 = 0.4522 | 770.91 | 1.3774 | 1098.3
328.15 K, x1 = 0.5521 | 770.35 | 1.37666 | 1097.5
328.15 K, x1 = 0.6518 | 770.02 | 1.37589 | 1096.6
328.15 K, x1 = 0.744 | 770.12 | 1.37513 | 1095.8
328.15 K, x1 = 0.8299 | 770.56 | 1.37437 | 1095.1
328.15 K, x1 = 0.919 | 771.22 | 1.37356 | 1094.3
328.15 K, x1 = 1 | 772.43 | 1.3728 | 1093.6
338.15 K, x1 = 0.1227 | 763.26 | 1.37559 | 1063
338.15 K, x1 = 0.2361 | 761.48 | 1.37472 | 1061.8
338.15 K, x1 = 0.3467 | 760.59 | 1.37383 | 1060.7
338.15 K, x1 = 0.4522 | 760.08 | 1.37293 | 1059.6
338.15 K, x1 = 0.5521 | 759.46 | 1.37206 | 1058.6
338.15 K, x1 = 0.6518 | 759.14 | 1.37116 | 1057.6
338.15 K, x1 = 0.744 | 759.29 | 1.37027 | 1056.6
338.15 K, x1 = 0.8299 | 759.87 | 1.36944 | 1055.7
338.15 K, x1 = 0.919 | 760.73 | 1.36852 | 1054.8
338.15 K, x1 = 1 | 762.27 | 1.36764 | 1053.8
